Data: publication PMC4143111, “Photoswitchable precision glycooligomers and their lectin binding” (Beilstein Journal of Organic Chemistry, 2014)

Key:
PA-IL [1] = target: T1, PA-IL (Pseudomonas aeruginosa, UniProt Q05097); test: SPR inhibition/competition assay of PA-IL binding to β-D-galactose-polymer chip
Procedure: In order to determine the binding affinity of the precision glycooligomers to PA-IL, surface plasmon resonance (SPR) experiments were performed. At first, an inhibition/competition assay was carried out. The SPR chip was modified with a β-D-galactose-polymer and α-D-mannose-polymer as negative control (see Supporting Information File 1). In a first experiment, binding of PA-IL (1 µM) to the chip was determined and set as 100%. In a second set of experiments, binding of preincubated mixtures of PA-IL (1 µM) and glycooligomers at serial dilutions (400 µM to 0.1 µM) were measured. […] Plotting this concentration dependent decrease in binding against […], sigmoidal curves were obtained and fitted with the Hill equation. The inhibitory concentration at 50% binding (IC50) was derived for the different glycooligomers (Table 2).
SPR PA-IL inhibition/competition studies:
A sensor chip SA coated with streptavidin was conditioned with three consecutive injections of 100 µl 1 M NaCl and 50 mM NaOH in a flow rate of 100 µL/min. Then, biotinylated β-D-galactose-PAA (0.1 nM in HBS-EP buffer) was immobilized on flow cell 2 with HBS-EP buffer in a flow rate of 5 µL/min.
Biotinylated α-D-mannose-PAA with the same concentration was immobilized as reference on flow cell 1. Binding analyses were carried out with running buffer (HEPES 10 mM, NaCl 150 mM, CaCl2 10 mM, pH 7.4.) at a flow rate of 20 µl/min. The PA-IL binding of the glycooligomers AZO-Gal(1,3)-3, AZO-Gal(1,3,5)-5, EDS-Gal(1,3)-3, EDS-Gal(1,3,5)-5 and AZO-Man(1,3,5)-5 (as control) was examined.
1 µM Pa-IL was incubated with the specific substance at final concentrations of 400 µM, 100 µM, 50 µM, 25 µM, 10 µM, 1 µM and 0.1 µM, in running buffer for 60 minutes at room temperature.
45 µL of each sample were injected over both lanes whereas the binding signal on the reference cell (α-D-mannose-PAA) was subtracted from the β-D-galactose-PAA flow cell during the binding measurement. Each binding cycle consisted of an injection phase for 80 s followed by a 100 s dissociation phase. The chip was regenerated after each run with 100 mM D-galactose in running buffer. The response values were calculated by subtraction of the report point at the beginning of the sample injections (0 s) from the report point at the end of the dissociation phase ([…]). The binding signal obtained by the 1 µM Pa-IL solution in running buffer without inhibitor was set to 100 % binding. This sample was measured 2 times before and 2 times after each measuring cycle. The binding signals of the specific inhibitor was referred to Pa-IL and calculated for relative PA-Il binding in % of PA-IL. Each data point (concentration) represents the mean value (± SEM) of two measurements. The obtained data points for each concentration were plotted with Origin 8.5G and fit with Hill1 equation, allowing for the determination of IC50 values (the concentration of inhibitor that results from 50 % binding of PA-IL binding to β-D-galactose-PAA on the sensor chip).
The characteristic sigmoidal shape (see Figure S4) was fitted with the Hill equation to obtain the IC50 […]
where Start is the value at 100% binding and equals 100, End is the value where no binding is observed anymore and equals 0, x corresponds to the concentration and n describes the cooperativity. IC50 values describe the inhibitory potential of a ligand for a specific receptor which is no direct measure for the affinity of a ligand but can be related to the affinity of the ligand in a competitive experiment e.g. as we have performed with PA-IL and against β-D-galactose.

[2] = Photoisomerization, composition at photostationary state by UPLC; assay type: physicochemical; conditions: irradiation at 360 nm
Procedure: The photochromic behavior of the newly synthesized AZO-glycooligomers was investigated by UV–vis absorption spectroscopy and ultraperformance liquid chromatography (UPLC). Aqueous solutions of Azo-Gal(1,3)-3 and Azo-Gal(1,3,5)-5 (the compounds were dissolved in the buffer used for the SPR measurements, see Supporting Information File 1 for the details) were irradiated at λ = 360 nm to induce the E → Z isomerization. […] The composition at the photostationary state (PSS) was analyzed by UPLC using integration of the UV signal at the wavelengths of the isosbestic points.

PA-IL [3] = target: T1, PA-IL; test: SPR direct binding assay, glycooligomers immobilized on chip, PA-IL flown over; conditions: steady-state affinity model
From the text: In order to approach practical applications of a photoswitchable device that could modulate its binding affinity towards PA-IL lectins on demand, we were intrigued in the ability of our light-responsive systems to work when immobilized on a surface. To this end we attached the photoswitchable precision glycooligomers directly to the SPR chip and performed a second set of lectin binding experiments using SPR and measuring PA-IL binding on the chip. The glycooligomers were covalently linked to the chip via their terminal amine group and the simultaneous activation of the carboxyl-functionalized chip surface as N-hydroxysuccinimide (NHS) ester (see Supporting Information File 1). Successful functionalization was monitored by SPR. Photoswitching of the glycooligomers was realized either ex situ prior to surface functionalization or in situ by direct irradiation of the functionalized chip. The equilibrium constant KD was obtained by fitting the obtained binding values at the turning point between binding- and dissociation-curve with a steady-state affinity model (Biacore T100 Evaluation Software 2.0.3). In agreement with the previously determined IC50 values, all KD values are in the µM range.
Figure S5: Inhibition curves of controls, Azo-Man(1,3,5)-5 and β-methyl galactose.
SPR PA-IL direct binding studies
For direct binding studies, glycooligomers E-Azo-Gal(1,3)-3, E-Azo-Gal(1,3,5)-5, Azo-Gal(1,3)-3-PSS and Azo-Gal(1,3,5)-5-PSS were immobilized on Biacore CM5 sensor chips. Two PSS were additionally generated by irradiation of the corresponding E structure immobilized on the Biacore sensor chip with light at 360 nm (see irradiation section above for details). Immobilizations were performed by flowing a solution of 2 mM glycoligand for 5 minutes with 10 µL per minute over one flow cell, after activation of it with 0.4 M […] in water and 0.1 M NHS in water. Remaining active ester groups were capped by injection of 1 M ethanolamine. HBS-P (0.01 M HEPES pH 7.4, 0.15 M NaCl, 0.005% v/v Surfactant P20 in water) was used as running buffer. A second flow cell was immobilized as blank reference cell, by flowing 1 M ethanolamine over the cell after activation with 0.4 M EDS in water and 0.1 M NHS in water. Serial dilutions of PA-IL (25 µM, 10 µM, 5 µM, 1 µM, 0.1 µM and 0 µM) were then flown over the sensor chip at 25 °C with Hepes running buffer (HEPES 10 mM, NaCl 150 mM, CaCl2 10 mM, pH 7.4.). Binding of lectin was evaluated with Biacore T100 evaluation software, determining KD affinity constants by employing a steady state affinity model.
(1 picture or pasted object on this page, not shown here)

[4] = no isomer state given (control structures), PA-IL 1 µM

T1 sequence (Q05097 whole entry): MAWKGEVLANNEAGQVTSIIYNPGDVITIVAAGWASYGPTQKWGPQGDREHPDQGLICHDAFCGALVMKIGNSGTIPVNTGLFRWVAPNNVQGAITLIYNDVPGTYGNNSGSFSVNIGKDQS

`CC(=O)NCCN(CCNC(=O)CCC(=O)NCCOCCOCCNC(=O)CCC(=O)NCCN(CCNC(=O)CCC(=O)NCCN)C(=O)CCc1cn(CCO[C@@H]2O[C@H](CO)[C@H](O)[C@H](O)[C@H]2O)nn1)C(=O)CCc1cn(CCO[C@@H]2O[C@H](CO)[C@H](O)[C@H](O)[C@H]2O)nn1` [EDS-Gal(1,3)-3] showed an IC50 (PA-IL [1]; IC50, no isomer state given (control structures), PA-IL 1 µM) of 3.2 ± 0.2 µM.
In the case of `CC(=O)NCCN(CCNC(=O)CCC(=O)NCc1ccc(/N=N/c2ccc(C(=O)NCCN(CCNC(=O)CCC(=O)NCc3ccc(/N=N/c4ccc(C(=O)NCCN(CCNC(=O)CCC(=O)NCCN)C(=O)CCc5cn(CCO[C@@H]6O[C@H](CO)[C@H](O)[C@H](O)[C@H]6O)nn5)cc4)cc3)C(=O)CCc3cn(CCO[C@@H]4O[C@H](CO)[C@H](O)[C@H](O)[C@H]4O)nn3)cc2)cc1)C(=O)CCc1cn(CCO[C@@H]2O[C@H](CO)[C@H](O)[C@H](O)[C@H]2O)nn1` [AZO-Gal(1,3,5)-5], the “E,E-isomer that did not isomerize at PSS” value ([2]; UPLC) is reported as 10%, the “E,Z isomer at PSS” value ([2]; UPLC) is reported as 10% and the “Z,E isomer at PSS” value ([2]; UPLC) is reported as 10%. The “Z,Z-isomer at PSS” value ([2]; UPLC) was 70%, the “total amount of Z-azobenzenes in the PSS mixture” value ([2]; buffer solution, from isomer composition) was 80% and the IC50 (PA-IL [1]; E-isomer, PA-IL 1 µM preincubated with glycooligomer 400 µM to 0.1 µM) was 3.4 ± 0.4 µM. It also gave an IC50 (PA-IL [1]; PSS: photostationary state @ 360 nm, PA-IL 1 µM preincubated with glycooligomer 400 µM to 0.1 µM) of 4.1 ± 1.3 µM, a Kd (PA-IL [3]; E-form immobilized on chip, 25 °C) of 3.3 ± 0.3 µM and a Kd (PA-IL [3]; PSS @ 360 nm, ex situ irradiation before immobilization) of 7.4 ± 0.9 µM. It also gave a Kd (PA-IL [3]; PSS @ 360 nm, irradiation on chip) of 3.2 ± 0.9 µM.
With `CC(=O)NCCN(CCNC(=O)CCC(=O)NCc1ccc(/N=N/c2ccc(C(=O)NCCN(CCNC(=O)CCC(=O)NCCN)C(=O)CCc3cn(CCO[C@@H]4O[C@H](CO)[C@H](O)[C@H](O)[C@H]4O)nn3)cc2)cc1)C(=O)CCc1cn(CCO[C@@H]2O[C@H](CO)[C@H](O)[C@H](O)[C@H]2O)nn1` [AZO-Gal(1,3)-3] the “Z-azobenzene in the PSS solution” value ([2]; buffer solution) was 78%, the IC50 (PA-IL [1]; IC50, E-isomer, PA-IL 1 µM preincubated with glycooligomer 400 µM to 0.1 µM) was 5.7 ± 1.7 µM and the IC50 (PA-IL [1]; IC50, PSS: photostationary state @ 360 nm, PA-IL 1 µM preincubated with glycooligomer 400 µM to 0.1 µM) was 9.4 ± 0.1 µM. For the same compound, the Kd (PA-IL [3]; KD, E-form immobilized on chip, 25 °C) was 1.7 ± 0.1 µM, the Kd (PA-IL [3]; KD, PSS @ 360 nm, ex situ irradiation before immobilization) was 2.4 ± 0.1 µM and the Kd (PA-IL [3]; KD, PSS @ 360 nm, irradiation on chip) was 1.8 ± 0.1 µM.
In the case of `CC(=O)NCCN(CCNC(=O)CCC(=O)NCCOCCOCCNC(=O)CCC(=O)NCCN(CCNC(=O)CCC(=O)NCCOCCOCCNC(=O)CCC(=O)NCCN(CCNC(=O)CCC(=O)NCCN)C(=O)CCc1cn(CCO[C@@H]2O[C@H](CO)[C@H](O)[C@H](O)[C@H]2O)nn1)C(=O)CCc1cn(CCO[C@@H]2O[C@H](CO)[C@H](O)[C@H](O)[C@H]2O)nn1)C(=O)CCc1cn(CCO[C@@H]2O[C@H](CO)[C@H](O)[C@H](O)[C@H]2O)nn1` [EDS-Gal(1,3,5)-5], the IC50 (PA-IL [1]; [4]) is reported as 2 ± 0.6 µM.
In the case of `CC(=O)NCCN(CCNC(=O)CCC(=O)NCc1ccc(/N=N/c2ccc(C(=O)NCCN(CCNC(=O)CCC(=O)NCc3ccc(/N=N/c4ccc(C(=O)NCCN(CCNC(=O)CCC(=O)NCCN)C(=O)CCc5cn(CCO[C@H]6O[C@H](CO)[C@@H](O)[C@H](O)[C@@H]6O)nn5)cc4)cc3)C(=O)CCc3cn(CCO[C@H]4O[C@H](CO)[C@@H](O)[C@H](O)[C@@H]4O)nn3)cc2)cc1)C(=O)CCc1cn(CCO[C@H]2O[C@H](CO)[C@@H](O)[C@H](O)[C@@H]2O)nn1` [AZO-Man(1,3,5)-5], the “binding to PA-IL (in words)” value (PA-IL [1]; SPR inhibition/competition assay) is reported as “does not show any binding” and the IC50 (PA-IL [1]; [4]) is reported as “n.b.^b”.
